Results on eight compounds are retold here after patent US7968554B2, “Pyrazolo[3,4-d]pyrimidine derivatives” (Hoffman-La Roche Inc., priority 2007, dated 2011).

Each structure is given as a SMILES string. Some results are limits rather than exact numbers.

In the test the target is T1, c-Raf (Homo sapiens, UniProt P04049).
T1 construct: made in house; host or cells: baculovirus, High-5 (Hi5) insect cells, co-infected with FLAG-vSrc virus
T1 sequence (P04049 whole entry): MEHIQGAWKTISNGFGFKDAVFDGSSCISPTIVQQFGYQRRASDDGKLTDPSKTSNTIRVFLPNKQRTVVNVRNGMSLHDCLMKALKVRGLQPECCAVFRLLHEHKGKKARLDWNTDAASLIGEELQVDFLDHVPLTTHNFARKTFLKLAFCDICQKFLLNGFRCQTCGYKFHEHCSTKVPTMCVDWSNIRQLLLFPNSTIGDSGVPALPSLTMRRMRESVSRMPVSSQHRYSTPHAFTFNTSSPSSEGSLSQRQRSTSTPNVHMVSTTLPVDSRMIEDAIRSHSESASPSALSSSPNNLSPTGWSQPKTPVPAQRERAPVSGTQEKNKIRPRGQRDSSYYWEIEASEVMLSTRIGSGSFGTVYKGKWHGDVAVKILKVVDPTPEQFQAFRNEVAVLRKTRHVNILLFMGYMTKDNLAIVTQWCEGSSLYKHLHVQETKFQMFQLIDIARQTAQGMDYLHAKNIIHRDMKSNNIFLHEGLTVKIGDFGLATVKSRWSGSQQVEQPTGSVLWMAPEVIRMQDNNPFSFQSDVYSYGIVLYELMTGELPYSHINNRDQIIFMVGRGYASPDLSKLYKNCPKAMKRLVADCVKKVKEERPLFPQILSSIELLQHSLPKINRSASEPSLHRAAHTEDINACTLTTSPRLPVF
The experiment in a line: c-Raf HTRF assay with 6H-MEK as substrate (dose response). It counts as biochemical. The conditions noted are these: kinase enzyme inhibition, 6H-MEK substrate, read-out: cRaf IC50. The protocol:
Kinase Enzyme Inhibition Assay (IC50)
c-Raf HTRF Assay With 6H-MEK as Substrate (Dose Response)
The assay utilizes 6H-MEK as the substrate. Upon c-Raf phosphorylation, phosphorylated 6H-MEK is detected with rabbit anti-phospho-MEK1/2, Eu-labeled anti-rabbit, and APC-labeled anti-6H antibodies.
Reagents and Instruments:
• Enzyme: cloned human c-Raf with EE-tag; phosphorylated (co-expressed with v-src-FLAG in baculovirus Hi5 cells), 0.2 mg/mL (2.74 μM assuming a molecular weight of 73 kD) stored at −15° C. • Substrate: WT full-length 6H-MEK, 4.94 mg/mL (154.4 μM assuming a MW of 32 kD) stored at −15° C. • Antibodies: Rabbit (α-P-(Ser 217/221)-MEK-1/2 Ab (from Cell Signaling, Cat. #9121B, Lot 14); Eu-(α-rabbit IgG (from Wallac, Cat. #AD0083, Lot 318663, 710 ug/mL, 4.4 μM); (α-6H-SureLight-APC (from Martek, Cat. #AD0059H, Lot E012AB01, 3.03 μM). • Reader: Envision from PerkinElmer, HTRF reading mode with 412 mirror • Assay Plate: Matrix all-black polypropylene plates (Cat. #4344) • Others: Weidman 384 polypropylene plates (REMP) for compound plate. Assay Procedure: • (1) Prepare Kinase Assay Buffer (KAB): 50 mM HEPES (HyClone) pH7, 10 mM MgCl2, 1 mM DTT, 0.1 mM […], and 0.3 mg/ml BSA. • (2) Prepare 6H-MEK (150 nM) in KAB. Add 12 μL/well to the assay plate. • (3) Prepare ATP (66 μM) in KAB. • (4) Dilute compounds to 2.4 mM and any positive controls to 480 μM in DMSO. Perform 10-point 3× dilution in DMSO. Withdraw 2.5 μL/well of DMSO solution and add to 27.5 μl/well ATP solution in (3). • (5) Mix, then add 6 μl/well of solution in (4) to the assay plate for a DMSO concentration of 2.1% during MEK phosphorylation. • (6) Prepare c-Raf (12 nM) in KAB. • (7) Add 6 μl/well of KAB in columns 1-2 and 6 μL/well of c-Raf in columns 3-24. • (8) Incubate at 37° C. for 30 min. • (9) Prepare rabbit (α-P-(Ser 217/221 )-MEK-1/2 Ab (1:240 from stock) in AB1: 50 mM HEPES pH7, 0.2 mg/mL BSA, and 43 mM EDTA. • (10) To stop reaction, add 6 μL/well of solution from (9) to the assay plate and incubate at 37° C. for 30 min. • (11) Prepare Eu-(α-rabbit IgG (9 nM) and (α-6H-SureLight-APC (120 nM) in AB2: 50 mM HEPES pH7 and 0.2 mg/mL BSA. • (12) Add 6 μl/well of solution from (11) to the assay plate. • (13) For determining the spectrum cross talk factor, prepare 2 samples following steps (1) to (10). For the blank sample, add 6 μl/well of AB2. For the cross talk factor sample, add 6 μL/well of Eu-anti rabbit IgG (9 nM). • (14) Incubate at room temperature for 1.5 hours. • (15) Read HTRF signals at 615 nm and 665 nm on the Envision. Normalize HTRF signals after spectrum cross-talk correction. Expression and Purification of c-Raf
N terminal EE-tagged c-Raf was expressed in High-5 cells. A five liter culture was co-transfected with virus for EE-c-Raf and FLAG-vSrc at a ratio of 1:2 and harvested after 48 hours. The cell pellet was lysed in TBS containing 5 mM EDTA, 50 mM KF, 20 mM Na pyrophosphate, 20 mM β-glycerolphosphate, 0.5 mM Na VO3, 1% NP-40 (w/v) and Complete Protease Tablets. The lysate was centrifuged at 20,000×g for 1 hour. The supernatant was incubated with 8 mL of anti-EE tag-Protein G Sepharose for 2 hours at 4° C. The resin was then washed with 30 volumes of the above buffer. The c-Raf protein was eluted by incubation with the above buffer containing 100 mg/mL of EE peptide for 1 hour at 4° C. The protein was concentrated using an Amicon Stir Cell with an YM10 membrane. The concentrated protein was dialyzed against TBS containing 1 mM DTT and 30% Glycerol. Protein concentration was determined by the BioRad DC method.
E. coli cells containing the plasmid for the expression of 6H-MEK1 (62-393) were grown in Rich Media and induced with 1 mM IPTG for 24 hours at 22° C. The cell pellet was resuspended in 50 mM potassium phosphate buffer, pH 8.0, 300 mM NaCl, 5 mM MgCl2, 10 mM CHAPS, 2 mM TCEP, and Complete Protease Inhibitor Tablets. Cells were disrupted by sonication. The lysate was cleared by centrifugation at 13,000×g for 45 minutes. […]
In general terms: TR-FRET usually uses a lanthanide donor and a delayed reading to cut background.
What is called IC50 is the concentration at which inhibition is half-maximal. Turning to `Cn1nc(COc2cccc(OCc3ccccc3)c2)c2c(N)ncnc21` [Example 7, 3-(3-Benzyloxy-phenoxymethyl)-1-methyl-1H-pyrazolo[3,4-d]pyrimidin-4-ylamine], the concentration for half-maximal inhibition (IC50) is under 10 µM.
In the case of `Cc1ccc(NC(=O)c2ccc(NCCO)c(Cl)c2)cc1OCc1nn(C)c2ncnc(N)c12` [Example 9, N-[3-(4-Amino-1-methyl-1H-pyrazolo[3,4-d]pyrimidin-3-ylmethoxy)-4-methyl-phenyl]-3-chloro-4-(2-hydroxy-ethylamino)-benzamide], the 50% inhibitory concentration (IC50) was under 10 µM.
The figure for `Cc1ccc(NC(=O)c2cccc(Cl)c2)cc1OCc1nn(C)c2ncnc(N)c12` [Example 11, N-[3-(4-Amino-1-methyl-1H-pyrazolo[3,4-d]pyrimidin-3-ylmethoxy)-4-methyl-phenyl]-3-chloro-benzamide] is under 10 µM; for `Cc1noc(-c2ccc(C)c(OCc3nn(C)c4ncnc(N)c34)c2)n1` [Example 13, 4-Amino-1-1-methyl-3-[2-methyl-5-(3-methyl-[1,2,4]oxadiazol-5-yl)-phenoxymethyl]-1H-pyrazolo[3,4-d]pyrimidine] it is under 10 µM; for `Cc1ccc(OCc2ccccc2)cc1OCc1nn(C)c2ncnc(N)c12` [Example 15, 3-(5-Benzyloxy-2-methyl-phenoxymethyl)-1-methyl-1H-pyrazolo[3,4-d]pyrimidin-4-ylamine] it is under 10 µM.
The figure for `Cc1ccc(C(=O)Nc2ccc(Cl)cc2)cc1OCc1nn(C)c2ncnc(N)c12` [Example 17, 3-(4-Amino-1-methyl-1H-pyrazolo[3,4-d]pyrimidin-3-ylmethoxy)-N-(4-chloro-phenyl)-4-methyl-benzamide] is under 10 µM.
Then `Cc1ccc(OCc2ccc(Cl)cc2)cc1OCc1nn(C)c2ncnc(N)c12` [Example 19, 3-[5-(4-Chloro-benzyloxy)-2-methyl-phenoxymethyl]-1-methyl-1H-pyrazolo[3,4-d]pyrimidin-4-ylamine], with under 10 µM.
Take `Cc1nnc(-c2ccc(C)c(OCc3nn(C)c4ncnc(N)c34)c2)o1` [Example 21, 1-Methyl-3-[2-methyl-5-(5-methyl-[1,3,4]oxadiazol-2-yl)-phenoxymethyl]-1H-pyrazolo[3,4-d]pyrimidin-4-ylamine]: the IC50 was under 10 µM.
